# Source: US4354039A, “Chlorocitric acids” (Hoffmann-La Roche Inc., priority 1981, dated 1982)
# Read-outs that look alike come from different tables or passages of the source.
# Assays:
# [1] = Effect of stereoisomers on food consumption of meal-fed rats (Example 14); format: in vivo, Charles River female rats
# Experimental: Animals were fasted 48 hr, then meal-fed the 70% glucose diet described by A. C. […] Following 5 to 12 days alimentation on the meal-feeding regimen, rats were dosed with the appropriate compounds orally by intubation 1/2 hr before the 3 hr meal. Food cups were weighed immediately after the meal. The control group consisted of 5 to 10 rats, while the experimental group consisted of 4 to 6 rats.
# [2] = Anorectic activities of stereoisomers, 3-day food consumption and body weight gain (Example 16); format: in vivo, Charles River female rats; conditions: 1.32 mmoles/kg oral, 3 days
# Experimental: Charles River female rats (Charles River Breeding Laboratories, Wilmington, Mass.), weighing 196 to 210 g, were individually housed in wire-bottomed cages in a temperature-regulated (22° C.) light-controlled room (12 hr light, 6 a.m. to 6 p.m. and 12 hr dark, 6 p.m. to 6 a.m.). Animals were fasted 48 hr, then meal-fed a 70% glucose diet from 8 to 11 a.m. Following 5 to 12 days alimentation on the meal-feeding regimen, rats were dosed with the appropriate compounds orally by intubation 1/2 hr before the 3 hr meal for 3 days. The total food consumption and body weight gained during the 3 day period were determined. The control group consisted of 16 rats, while the experimental group consists of 8 rats.
# isolated rat hepatocytes = assay: Fatty acid and cholesterol synthesis and CO2 production in isolated hepatocytes (Example 23); format: cell-based, Female Charles River rats; conditions: 2 mM, 60 min, 37° C.; for activity at 2000 µM: Rattus norvegicus, Hepatocyte, 1 h
# Experimental: Female Charles River rats were fasted 48 hr, then meal-fed a 1% corn oil, 70% glucose diet for 7 to 14 days from 8 to 11 a.m. The isolated rat hepatocytes were prepared by perfusing the liver in situ. The hepatocytes were incubated in an oscillating water bath at 37° C. for 60 min. […] All incubations were done in triplicate and all experiments were repeated at least twice. […] The contents of the center well were transferred to scintillation counting fluid and ^14 CO2 content was determined. […] The media was then acidified, extracted with hexane, and the extract counted (to determine the rate of lipogenesis). The conversion of ^3 H2 O and [^14 C]alanine into fatty acids or sterols was determined in a PDS/3, Mark II liquid scintillation counting system.
# [3] = Effect on stomach emptying, [14C] glucose load (Example 25); format: in vivo, Rats; conditions: 0.33 mmoles/kg oral, 60 min after [14C] glucose load
# Experimental: Rats were trained to consume a 3 hr 70% glucose meal from 8 a.m. to 11 a.m. daily. On the experimental day, compounds were administered orally by intubation 30 min before a [^14 C] glucose load was given also by intubation. […] Sixty minutes later the rats were killed by decapitation; blood and stomachs were collected on ice.
# Data are expressed as follows: dpm×10^3 per ml of serum and dpm×10^3 per stomach.
# [4] = Food intake in dogs, pyramiding oral doses (Examples 26 and 27); format: in vivo, beagle dogs
# Experimental: Twelve beagle dogs of both sexes weighing 7.6-12.2 kg were used for this test. The test compounds were contained in gelatin capsules for oral administration to two dogs of each sex. The animals were weighed and food consumption calculated daily excluding weekends throughout the test period. Each animal received 800 grams of diet daily consisting of 400 grams of Wayne pellet dog food mixed with 400 ml distilled water. The animals received pyramiding oral doses of the test compound over the three week period. On Monday and Tuesday of the first week the animals were weighed and food consumption was recorded (control). […] Doses of 30, 100 and 300 mg/kg were administered on Monday, Wednesday and Friday respectively during the second week. A final dose of 1000 mg/kg was administered on Monday of the third week.
# Food intake was determined by the procedure at pyramiding doses described in EXAMPLE 26.
# [5] = test day 8, dose 100 mg/kg oral
# [6] = test day 10, dose 300 mg/kg oral
# [7] = test day 13, dose 1000 mg/kg oral
structure (smiles),measurement,setting,value
O=C(O)C[C@](O)(C(=O)O)[C@H](Cl)C(=O)O [(+)-threo-Chlorocitric acid],"Food Consumption, % of control",[1]; 0.66 mmoles/kg oral,83 % of control
same,"Food Consumption, % of control",[1]; 2.63 mmoles/kg oral,38 % of control
same,"3-Day Body Weight Gain, % of initial body weight",[2],-1.7 % of initial body weight
same,"3-Day Food Consumption, % of control",[2],93 % of control
same,"CO2 Production, [14C]alanine converted",isolated rat hepatocytes; 2000 µM,100 % of control
same,"Cholesterol Synthesis, [14C]alanine converted",isolated rat hepatocytes; 2000 µM,88 % of control
same,"Fatty Acid Synthesis, 3H2O converted",isolated rat hepatocytes; 2000 µM,94 % of control
same,"Fatty Acid Synthesis, [14C]alanine converted",isolated rat hepatocytes; 2000 µM,97 % of control
same,activity at 2000 µM,"isolated rat hepatocytes; read-out: CO2 Production, [14C]alanine converted",114%
same,activity at 2000 µM,"isolated rat hepatocytes; read-out: Cholesterol Synthesis, [14C]alanine converted",69%
same,activity at 2000 µM,"isolated rat hepatocytes; read-out: Fatty Acid Synthesis, 3H2O converted",93%
same,activity at 2000 µM,"isolated rat hepatocytes; read-out: Fatty Acid Synthesis, [14C]alanine converted",102%
same,"Serum, % of control",[3],60 % of control
same,"Stomach Contents, % of control",[3],220 % of control
same,Food Consumption,"[4]; test day 1, dose 3 mg/kg oral",430 ± 109 g
same,"Food Consumption, % of control","[4]; test day 1, dose 3 mg/kg oral",70 % of control
same,Food Consumption,"[4]; test day 2, no dose",502 ± 109 g
same,"Food Consumption, % of control","[4]; test day 2, no dose",82 % of control
same,Food Consumption,"[4]; test day 3, dose 10 mg/kg oral",367 ± 114 g
same,"Food Consumption, % of control","[4]; test day 3, dose 10 mg/kg oral",60 % of control
same,Food Consumption,"[4]; test day 6, dose 30 mg/kg oral",629 ± 64 g
same,"Food Consumption, % of control","[4]; test day 6, dose 30 mg/kg oral",103 % of control
same,Food Consumption,"[4]; test day 7, no dose",397 ± 87 g
same,"Food Consumption, % of control","[4]; test day 7, no dose",65 % of control
same,Food Consumption,[4]; [5],477 ± 75 g
same,"Food Consumption, % of control",[4]; [5],78 % of control
same,Food Consumption,"[4]; test day 9, no dose",585 ± 69 g
same,"Food Consumption, % of control","[4]; test day 9, no dose",96 % of control
same,Food Consumption,[4]; [6],436 ± 60 g
same,"Food Consumption, % of control",[4]; [6],71 % of control
same,Food Consumption,[4]; [7],433 ± 125 g
same,"Food Consumption, % of control",[4]; [7],71 % of control
same,Food Consumption,"[4]; test day 14, no dose",518 ± 19 g
same,"Food Consumption, % of control","[4]; test day 14, no dose",85 % of control
same,Food Consumption,"[4]; test day 15, no dose",622 ± 69 g
same,"Food Consumption, % of control","[4]; test day 15, no dose",102 % of control
same,Food Consumption,"[4]; test day 16, no dose",564 ± 106 g
same,"Food Consumption, % of control","[4]; test day 16, no dose",92 % of control
same,Food Consumption,"[4]; test day 17, no dose",597 ± 36 g
same,"Food Consumption, % of control","[4]; test day 17, no dose",98 % of control
same,Food Consumption,"[4]; test day 21, no dose",578 ± 79 g
same,"Food Consumption, % of control","[4]; test day 21, no dose",95 % of control
same,Food Consumption,"[4]; test day 22, no dose",668 ± 57 g
same,"Food Consumption, % of control","[4]; test day 22, no dose",110 % of control
same,Food Consumption,"[4]; test day 23, no dose",516 ± 66 g
same,"Food Consumption, % of control","[4]; test day 23, no dose",85 % of control
same,Food Consumption,"[4]; test day 24, no dose",539 ± 39 g
same,"Food Consumption, % of control","[4]; test day 24, no dose",88 % of control
same,Food Consumption,"[4]; test day 27, no dose",479 ± 92 g
same,"Food Consumption, % of control","[4]; test day 27, no dose",79 % of control
same,Food Consumption,"[4]; test day 28, no dose",710 ± 91 g
same,"Food Consumption, % of control","[4]; test day 28, no dose",116 % of control
